Data reported in patent US20080008774A1, “Use Of Plants, Plant Extracts And Nature-Identical Components From Plants To Affect The Rumen Fermentation And To Improve The Energy And Protein Retention Of Ruminants” (DSM IP ASSETS B.V., priority 2004, published 2008).

Tests used:
[1] = tested on: lactic acid producing bacteria; experiment: Acidosis assay (pH and lactic acid, milled wheat grain, 48-h fermentation); format: cell-based, cows; details: 100 mg/g DM in milled wheat grain (β-myrcene 10 mg/g), control = 100
Experimental: A model was used in which the decrease in incubation medium pH and the concentration of lactic acid produced, relative to the controls over a 48-h fermentation period provided an indication of the ability of the test substrates to offset potential acidotic effects. In this study milled wheat grain [2 mm] was used as the basal substrate and the test materials included at 100 mg g^−1 DM [or 10 mg g^−1 DM β-myrcene]. As before 1.0 g total substrate was added to each flask. To enhance lactic acid production, the buffer solution prepared was diluted by 50 percent. This was to ensure that the buffering capacity of the incubation medium was exceeded and the resulting decrease in pH encouraged growth of Lactobacilli and other lactic acid producing bacteria. Rumen fluid was obtained and prepared as previously described except that the two cows used were offered an early lactation ration with a high level of coarse milled wheat. Fluid pH measurements were made one hour after inoculation [start pH] then after a further 23 and 47 hours, by inserting a pH electrode directly into each flask. Immediately following the last measurement approximately 3.0 ml fluid were taken from each flask, bulked by sample and stored frozen at −20° C. until analyzed enzymatically for L [+] lactic acid. Results are presented as absolute differences relative to the controls. […]

ruminal fermentation [2] = experiment: Reading methods for general effects on fermentation (RPT, maize silage); format: cell-based, lactating dairy cows; details: Reading diet; for Cumulative gas, 24 h / Fermentation efficiency: control = 100; for Dry matter digestion: value in absence of plant material = 100
Experimental: A series of thirteen consecutive fermentations, one per week, was undertaken using the Reading Pressure Technique [RPT], to identify potential effects from including these test materials on the fermentation and degradation characteristics of a basal forage [maize silage]. All materials were examined in triplicate and at two inclusion levels [100 and 400 mg g^−1 DM substrate], with the exception of β-myrcene [10 and 40 mg g^−1 inclusion levels]. The maize silage was pre-dried and milled to pass a 2 mm screen. A total of 1.0 g blended substrate [silage plus substrate] was placed in each fermentation flask. Buffered incubation medium [90 ml] was then added, the flasks sealed and stored overnight at room temperature. Prior to inoculation with prepared rumen fluid, flask contents were raised to 39° C. Rumen fluid was obtained manually [hand-squeezed contents] prior to feeding [07.00 h] from two lactating dairy cows offered a maize/grass silage : concentrate [60:40] ration ad libitum. The fluid was filtered through two layers of muslin and held under CO2 at 39° C. until use. Ten ml prepared fluid was added to each flask and these incubated at 39° C. for the duration of the study. Six negative controls [buffered medium plus rumen fluid only] were included in each run to correct gas values and degradation residues for direct rumen fluid effects. In addition un-supplemented maize silage [1.0 g flask^−1] was included in all runs [six flasks per run]. Results within studies were expressed relative to the positive control values. Headspace gas pressure readings were obtained 2, 4, 6, 8, 10, 12, 14, 16, 18, 21 and 24 hours post-inoculation. Following the last measurement approximately 3.0 ml fermentation medium was sampled from each flask and bulked by test material/inclusion level and stored frozen [−20° C.] until later analysis for VFA composition using a Varian 3600 GC. Fermentation residues were recovered by filtering flask contents through 60 ml Gooch crucibles [porosity 1, 100 to 160 μm] under light vacuum. The residues were then dried [100° C. for 24 hours], weighed, ashed [500° C. overnight] and reweighed. The quantity of dry matter [DM] and organic matter [OM] determined were used to assess iDMD and iOMD [in vitro DM and OM degradation, respectively]. The extent [ml gas g^−1 OM incubated] and rate of fermentation gas release [ml h^−1] were generated using a previously derived quadratic function to convert pressure to volume. Feed fermentation efficiency [FE] was estimated as iDMD [g kg^−1]/cumulative gas [ml] release at 24 h post-inoculation. Statistical differences between treatment means and the positive control [maize silage alone] were assessed using Students T-test and significance declared at […].

ruminal ciliate protozoa = experiment: Bacteriolytic activity of ruminal ciliate protozoa (breakdown of 14C-leucine-labelled Selenomonas ruminantium in strained ruminal fluid); format: cell-based, sheep
Experimental: The rate of breakdown of [^14C]leucine-labelled Selenomonas ruminantium was determined by incubating strained ruminal fluid in vitro with labelled S. ruminantium in the presence of 5 mM unlabelled L-leucine as described previously (Wallace & McPherson, 1987). Under these conditions, the great majority of bacterial protein breakdown is caused by the ingestion and digestion of bacteria by ciliate protozoa. The samples were, unless stated otherwise, added at a concentration of 5 mg/ml. The sheep received a mixed grass hay:concentrate diet (Frumholtz et al., 1989).

ruminal fermentation [3] = experiment: León methods for general effects on fermentation (batch cultures); format: cell-based, sheep; details: Leon diet; amount in feed 10 %; 24 h; control = 100
Experimental: Rumen cannulated sheep fed on a diet consisting of 75% alfalfa hay and 25% barley (free access to vitamin-mineral supplements and water) were used as donors for rumen fluid. Rumen fluid was collected just before the morning meal. The substrate used for the batch cultures consisted of 50% alfalfa hay, 40% grass hay and 10% barley grain, milled in a hammer mill with a 1-mm screen. The amount of substrate used was 500 mg, and inclusion rate of the test plant was 10% (ca. 50 mg). Both were weighed into serum bottles, where 50 ml of buffered rumen fluid (containing 10 ml of filtered rumen fluid and 40 ml of the medium described by Goering & Van Soest, 1970) were dispensed an-aerobically. The bottles were sealed and incubated at 39° C. After 24 h of incubation, the ensuing measurements were recorded: • Total gas production (ml), using a pressure transducer and collecting the gas in a calibrated syringe. • pH in the incubation medium. • Volatile fatty acids concentration in the incubation medium, by GC (VFA was also measured at inoculation time to calculate VFA production after 24 h). • DM incubation residue, by filtering the bottle contents in sintered crucibles and weighing the residue after drying. Thereafter, the neutral detergent fibre (NDF) content of the residue was determined to calculate the amount of un-degraded NDF. From this, DM and NDF disappearance were estimated. Three replicates per plant were incubated, and blanks (no substrate no plant) and controls (500 mg substrate without any plant, and 550 mg substrate without any plant) were used.

ruminal digesta [4] = experiment: Methane formation by ruminal digesta (León incubations, GC); format: cell-based, sheep
Experimental: A representative sample of the gas produced was taken for subsequent analysis. Sampling was conducted using special gas-tight glass syringes fitted with a valve allowing for sample locking and storage. The sample was collected directly from the headspace, after inserting the needle through the septum of the stopper, taking a sample in the syringe and closing the valve. This sample was collected after measuring total gas production, assuming that gas composition was the same in the gas released and in that remaining in the headspace. Methane concentration in the gas produced was determined by gas chromatography. The gas sample (300 to 500 μl) was injected directly from the gas-tight syringe to the corresponding port. The GC parameter settings used for the analysis were: • Instrument: Shimadzu GC-14B provided with a flame ionisation detector (FID) • Column: 2.3 meters length×2.1 mm internal diameter stainless steel column packed with 60/80 mesh Carboxen 1000 stationary phase • Carrier gas: Helium, flow rate (100 kPa), Constant flow mode • Temperatures: • Detector: FID. Temperature 200° C., Synthetic Air flow rate (50 kPa), H2 flow rate (50 kPa) • Injector: Temperature 200° C. • Column-oven: 170° C. […] The standard curve was established by plotting a linear regression of the standard quantities injected of methane versus the area of the peaks to obtain the response factor.

ruminal fermentation [5] = experiment: Hohenheim methods for general effects on fermentation (RPT, grass silage); format: cell-based, non-lactating Holstein cows; details: Hohenheim diet; amount in feed 10 %; control = 100
ruminal digesta [6] = experiment: Proteolytic activity of ruminal digesta, Method 1 (14C-casein); format: cell-based, sheep; details: 2.5 mg/ml, 1 h; value in absence of plant material = 100
Experimental: Method 1. Strained ruminal fluid from the same sheep was used to determine proteolytic activity using the ^14C-casein method of Wallace (1983). Samples were added to a final concentration of 2.5 mg/ml, and an incubation time of 1 h was used.

[7] = amount in feed 10 % (β-myrcene 10 mg/g)
[8] = amount in feed 40 % (β-myrcene 40 mg/g)

C=CC(=C)CCC=C(C)C [Sample 13, β-Myrcene]
Acidity, 24 h ([1]; 24 h): 105 | Acidity, 48 h ([1]; 48 h): 115 | Cumulative gas, 24 h (ruminal fermentation [2]; [7]): 100 | Fermentation efficiency (ruminal fermentation [2]; [7]): 103 | Dry matter digestion (ruminal fermentation [2]; [7]): 103 | Cumulative gas, 24 h (ruminal fermentation [2]; [8]): 82 | Fermentation efficiency (ruminal fermentation [2]; [8]): 109 | Dry matter digestion (ruminal fermentation [2]; [8]): 89 | bacteriolytic activity of ciliate protozoa / protozoal activity (in words) (ruminal ciliate protozoa): moderate inhibiting effect | Protozoal activity (ruminal ciliate protozoa; 5 mg/ml, value in absence of plant material = 100): 68 | App. digestibility (ruminal fermentation [3]): 93 | C3/C2 (ruminal fermentation [3]): 105 | Digestibility (ruminal fermentation [3]): 102 | Fermentation efficiency (ruminal fermentation [3]): 109 | Gas production (ruminal fermentation [3]): 97 | Microbial biomass (ruminal fermentation [3]): 115 | TVFA (ruminal fermentation [3]): 96 | methane production / methanogenic activity (in words) (ruminal digesta [4]): decrease | Methane formation, Leon (ruminal digesta [4]; 10% of feed, value in absence of plant material = 100): 90 | C3/C2 (ruminal fermentation [5]): 104 | Digestibility (ruminal fermentation [5]): 100 | Fermentation efficiency (ruminal fermentation [5]): 99 | Gas production (ruminal fermentation [5]): 101 | SCFA (ruminal fermentation [5]): 103 | Proteolysis, Method 1 (ruminal digesta [6]): 110
